Experimental data as given in BindingDB's records for doi:10.7270/Q2C53J9J (University of Pittsburgh, 2010).

These compounds were tested against T1, Glucose-6-phosphate 1-dehydrogenase (Leuconostoc mesenteroides, UniProt P11411) (assay: Leuconostoc G6PDH inhibition potency, SAR follow-up, counter-screen for TbHK1 inhibitor project, biochemical, analogue series, IC50 (AID 2579)).
T1 sequence (P11411 whole entry): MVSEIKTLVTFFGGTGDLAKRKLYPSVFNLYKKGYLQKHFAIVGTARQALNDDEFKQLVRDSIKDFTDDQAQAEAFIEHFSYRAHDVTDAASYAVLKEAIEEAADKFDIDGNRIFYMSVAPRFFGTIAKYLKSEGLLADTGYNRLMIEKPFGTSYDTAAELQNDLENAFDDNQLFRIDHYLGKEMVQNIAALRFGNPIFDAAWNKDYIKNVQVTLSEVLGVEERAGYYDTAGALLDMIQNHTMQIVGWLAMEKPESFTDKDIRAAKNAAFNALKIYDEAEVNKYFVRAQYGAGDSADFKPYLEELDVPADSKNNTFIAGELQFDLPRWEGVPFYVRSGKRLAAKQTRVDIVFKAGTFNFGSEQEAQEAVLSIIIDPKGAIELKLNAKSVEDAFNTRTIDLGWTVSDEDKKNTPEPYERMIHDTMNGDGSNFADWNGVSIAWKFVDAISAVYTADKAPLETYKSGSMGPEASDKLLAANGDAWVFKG

Q: How did the IC50 turn out when O=C(O)c1ccc(Cl)cc1NC(=O)c1coc2ccccc12 [2-[[3-benzofuranyl(oxo)methyl]amino]-4-chlorobenzoic acid] was run?
A: Its IC50 is greater than 25 µM.

Q: Which IC50 does the source give for O=C(Nc1cc(Cl)ccc1C(=O)O)c1ccccc1 [2-benzamido-4-chlorobenzoic acid] here?
A: The IC50 was greater than 25 µM.

Q: O=c1c2ccccc2sn1-c1ccccc1 [2-phenyl-1,2-benzothiazol-3-one] was tested. Which IC50 did it give?
A: Its IC50 is greater than 25 µM.

Q: COc1ccc(C(=O)NC(CC(=O)O)c2cccc(Cl)c2)cc1 (stereo not given) [3-(3-chlorophenyl)-3-[(4-methoxybenzoyl)amino]propanoic acid] was tested. Which IC50 did it give?
A: Its IC50 is greater than 25 µM.

Q: For CN(C)S(=O)(=O)c1cccc(-n2sc3ccccc3c2=O)c1 [3-(3-keto-1,2-benzothiazol-2-yl)-N,N-dimethyl-benzenesulfonamide], which IC50 is on record?
A: Its IC50 is greater than 25 µM.

Q: How did the IC50 turn out when O=C(CCn1sc2ccccc2c1=O)Nc1ccccc1 [3-(3-oxidanylidene-1,2-benzothiazol-2-yl)-N-phenyl-propanamide] was run?
A: Its IC50 is greater than 25 µM.

Q: How did the IC50 turn out when COc1ccc(C(=O)NC(CC(=O)O)c2ccc(Cl)cc2)cc1 (stereo not given) [3-(4-chlorophenyl)-3-[(4-methoxyphenyl)carbonylamino]propanoic acid] was run?
A: The IC50 was greater than 25 µM.

Q: For COc1ccc(C(=O)Nc2cnccc2C(=O)O)cc1 [3-[(4-methoxybenzoyl)amino]pyridine-4-carboxylic acid], which IC50 is on record?
A: Its IC50 is greater than 25 µM.

Q: For CCOC(=O)c1ccncc1NC(=O)c1ccc(OC)cc1 [3-[[(4-methoxyphenyl)-oxomethyl]amino]-4-pyridinecarboxylic acid ethyl ester], which IC50 is on record?
A: Its IC50 is greater than 25 µM.

Q: With N#Cc1ccc2c(=O)n(-c3ccccc3)sc2c1 [3-oxidanylidene-2-phenyl-1,2-benzothiazole-6-carbonitrile] as the compound, how does the IC50 read?
A: Its IC50 is greater than 25 µM.

Q: How did the IC50 turn out when CCc1ccc(C(=O)Nc2cc(Br)ccc2C(=O)O)cc1 [4-bromanyl-2-[(4-ethylphenyl)carbonylamino]benzoic acid] was run?
A: The IC50 was greater than 25 µM.

Q: With O=c1c2c(Br)cccc2sn1-c1ccccc1 [4-bromanyl-2-phenyl-1,2-benzothiazol-3-one] as the compound, how does the IC50 read?
A: The IC50 was greater than 25 µM.

Q: For O=c1c(Br)csn1-c1ccc(Br)cc1 [4-bromo-2-(4-bromophenyl)-3-isothiazolone], which IC50 is on record?
A: Its IC50 is greater than 25 µM.

Q: COc1ccc(C(=O)Nc2cc(Br)ccc2C(=O)O)cc1 [4-bromo-2-[[(4-methoxyphenyl)-oxomethyl]amino]benzoic acid] was tested. Which IC50 did it give?
A: The IC50 was greater than 25 µM.

Q: With O=C(Nc1cc(Cl)ccc1C(=O)O)c1ccoc1 [4-chloranyl-2-(furan-3-ylcarbonylamino)benzoic acid] as the compound, how does the IC50 read?
A: The IC50 was greater than 25 µM.

Q: How did the IC50 turn out when O=C(Nc1cc(Cl)ccc1C(=O)O)c1ccc(Cl)cc1 [4-chloranyl-2-[(4-chlorophenyl)carbonylamino]benzoic acid] was run?
A: Its IC50 is greater than 25 µM.

Q: How did the IC50 turn out when COc1ccc(C(=O)Nc2cc(Cl)ccc2C(=O)O)cc1 [4-chloranyl-2-[(4-methoxyphenyl)carbonylamino]benzoic acid] was run?
A: The IC50 was greater than 25 µM.

Q: For O=C(Nc1cc(Cl)ccc1C(=O)O)c1ccc(-c2ccccc2)cc1 [4-chloranyl-2-[(4-phenylphenyl)carbonylamino]benzoic acid], which IC50 is on record?
A: The IC50 was greater than 25 µM.

Q: How did the IC50 turn out when COc1ccc(C(=O)Nc2cc(Cl)ccc2C(=O)O)cn1 [4-chloranyl-2-[(6-methoxypyridin-3-yl)carbonylamino]benzoic acid] was run?
A: The IC50 was greater than 25 µM.

Q: Which IC50 does the source give for CC(C)Cc1ccc(C(=O)Nc2cc(Cl)ccc2C(=O)O)cc1 [4-chloranyl-2-[[4-(2-methylpropyl)phenyl]carbonylamino]benzoic acid] here?
A: The IC50 was greater than 25 µM.

Q: For O=C(Nc1cc(Cl)ccc1C(=O)O)c1ccc(Cc2ccccc2)cc1 [4-chloranyl-2-[[4-(phenylmethyl)phenyl]carbonylamino]benzoic acid], which IC50 is on record?
A: Its IC50 is greater than 25 µM.

Q: Which IC50 does the source give for O=C(Nc1cc(Cl)ccc1C(=O)O)c1ccc(C(F)(F)F)cc1 [4-chloranyl-2-[[4-(trifluoromethyl)phenyl]carbonylamino]benzoic acid] here?
A: The IC50 was greater than 25 µM.

Q: Which IC50 does the source give for CCCCCCC(=O)Nc1cc(Cl)ccc1C(=O)O [4-chloro-2-(1-oxoheptylamino)benzoic acid] here?
A: The IC50 was greater than 25 µM.

Q: How did the IC50 turn out when CCCCCC(=O)Nc1cc(Cl)ccc1C(=O)O [4-chloro-2-(1-oxohexylamino)benzoic acid] was run?
A: The IC50 was greater than 25 µM.

Q: For COc1ccc(Nc2cc(Cl)ccc2C(=O)O)cc1 [4-chloro-2-(4-methoxyanilino)benzoic acid], which IC50 is on record?
A: Its IC50 is greater than 25 µM.
